Experimental findings from patent EP4810040A2, “INHIBITORS OF APOL1 AND METHODS OF USING SAME” (priority 2020, dated 2022) are described below.

Where two headings read alike, the source gives them in different places. Bounds are passed on as bounds.

The experiment deals with T1, APOL1 G1 (Homo sapiens, UniProt O14791, I384M/S342G).
T1 sequence (O14791 28-398 S342G/I384M): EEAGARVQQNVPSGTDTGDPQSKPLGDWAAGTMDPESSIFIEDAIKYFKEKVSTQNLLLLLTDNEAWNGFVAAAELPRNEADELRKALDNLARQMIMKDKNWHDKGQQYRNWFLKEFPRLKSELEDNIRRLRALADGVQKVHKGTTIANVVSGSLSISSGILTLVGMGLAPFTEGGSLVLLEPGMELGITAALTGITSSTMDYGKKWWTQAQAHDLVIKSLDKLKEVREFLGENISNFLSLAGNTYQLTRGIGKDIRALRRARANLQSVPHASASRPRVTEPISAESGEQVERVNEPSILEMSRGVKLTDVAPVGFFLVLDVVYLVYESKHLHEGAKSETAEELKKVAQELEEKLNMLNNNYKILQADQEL
Briefly: MultiTox-Fluor Multiplex Cytotoxicity Assay, tet-inducible APOL1 G1 T-REx-HEK293 cells. In kind it is cell-based. Also noted: expressed in transfected cells; host or cells: T-REx HEK293, clone G1 DC3.25 (pAAVS1-Puro-APOL1 G1). The following applies: for IC90: read-out: Multi-Tox Assay IC90; for Emax: read-out: Multi-Tox Assay Max Activity (%). The procedure, abridged: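 T-REx-HEK293 cells carrying tet-inducible APOL1 G1 induced with 50 ng/mL tet alongside compound (top 10 µM, 10-point 3-fold, duplicate) for 24 h at 37 °C. MultiTox-Fluor dead/live protease fluorescence ratio read after 30 min; normalized to no-tet (100% viability) and tet-treated (0%) controls, then curve-fitted.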

[1] abbreviates: HEK293, Multi-Tox Assay, APOL1 variant (G0/G1/G2) of the HEK293 cells not given.
The mark [2] stands for this setting: Multi-Tox Assay, APOL1 variant not given.
Setting [3] is: Multi-Tox Assay, APOL1 variant (G0/G1/G2) not stated in Table 46.
[4] abbreviates: Multi-Tox Assay, APOL1 variant not stated in Table 46.

`CC(C)N1CC(Cn2cc([C@@H]3C[C@]4(C[C@H](C)N3)OCC(F)(F)c3cc(Cl)sc34)nn2)CC1=O` (stereo partly drawn) [Compound 327]: the IC90 under setting [1] lay within 50 to 500 nM. In addition, the “Multi-Tox Assay Max Activity (%)” value under setting [2] is reported as 98.0%. For `C[C@H]1C[C@@]2(C[C@@H](c3cnn(C4CCS(=O)(=O)C4)c3)N1)OCCc1cc(Cl)sc12` (stereo partly drawn) [Compound 97], the Emax was determined as 99%. Further, the IC90 under setting [1] is less than 50 nM.

On to `C[C@H]1C[C@@]2(C[C@@H](c3cnc(C4CCOCC4)o3)N1)OCCc1cc(Cl)sc12` (racemic) [Compound 140], for which the concentration for an effect of 90% (IC90) under setting [1] fell in the range of 50 to 500 nM. Further, the “Multi-Tox Assay Max Activity (%)” value under setting [2] turned out to be 99.7%. As to `Cc1nccn1CCCn1cc([C@@H]2C[C@]3(C[C@H](C)N2)OCC(F)(F)c2cc(Cl)sc23)nn1` [Compound 341], the 90% effect concentration (IC90) under setting [1] was more than 500 nM. The “Multi-Tox Assay Max Activity (%)” value under setting [2] stood at 98.0%.

In the case of `C[C@H]1C[C@@]2(C[C@@H](c3cn(Cc4ccc5nc(O)[nH]c5c4)nn3)N1)OC[C@@H](O)c1cc(Cl)sc12` [Compound 249], under setting [1], the concentration for an effect of 90% (IC90) was more than 500 nM. Also, the “Multi-Tox Assay Max Activity (%)” value under setting [2] is on record as 92.0%.

For `C[C@H]1C[C@@]2(C[C@@H](c3cn(C)nn3)N1)OCCc1sc(C(F)(F)F)cc12` [Compound 8, (2'S,4S,6'S)-2'-methyl-6'-(1-methyltriazol-4-yl)-2-(trifluoromethyl)spiro[6,7-dihydrothieno[3,2-c]pyran-4,4'-piperidine]], the IC90 under setting [1] was less than 50 nM. Also, the “Multi-Tox Assay Max Activity (%)” value under setting [2] amounted to 100.0%.

For the compound `CC(C)c1c[nH]c([C@@H]2C[C@]3(C[C@H](C)N2)OCCc2cc(Cl)sc23)n1` (racemic) [Compound 162], under setting [1], the IC90 is more than 500 nM. In addition, the “Multi-Tox Assay Max Activity (%)” value under setting [2] was determined as 92.0%. For the compound `CC(C)C1CC2(CC(c3cn(C)nn3)N1)OCCc1cc(C(F)(F)F)sc12` (stereo not drawn) [Compound 191], the concentration for an effect of 90% (IC90) under setting [1] fell in the range of 50 to 500 nM. Under setting [2], the Emax is 99.7%. `[2H]C1([2H])O[C@@]2(C[C@@H](c3cn(C)nn3)N[C@@H](C)C2)c2sc(Cl)cc2[C@]1([2H])O` [Compound 385, (2S,4S,4'S,6S)-2'-chloro-4',5',5'-trideuterio-2-methyl-6-(1-methyltriazol-4-yl)spiro[piperidine-4,7'-thieno[2,3-c]pyran]-4'-ol]: the concentration for an effect of 90% (IC90) under setting [3] was less than 50 nM. Further, the Emax under setting [4] was 100%. With `C[C@H]1C[C@@]2(C[C@@H](c3ccc(O)cn3)N1)OCCc1cc(Cl)sc12` (racemic) [Compound 59], the IC90 under setting [1] is less than 50 nM. In addition, under setting [2], the “Multi-Tox Assay Max Activity (%)” value is 99.3%. As to `CC(CO)Cn1cc([C@@H]2C[C@]3(C[C@H](C)N2)OC[C@@H](O)c2cc(Cl)sc23)nn1` (stereo partly drawn) [Compound 256], under setting [1], the IC90 is 50 to 500 nM. Also, the “Multi-Tox Assay Max Activity (%)” value under setting [2] is 96.0%. The matching figures for `CCC(O)Cn1cc([C@@H]2C[C@]3(C[C@H](C)N2)OCC(F)(F)c2cc(Cl)sc23)nn1` (stereo partly drawn) [Compound 325]: 50 to 500 nM and 98.0%. For the compound `C[C@H]1C[C@@]2(C[C@@H](c3cccc(-c4cn[nH]c4)c3)N1)OCCc1cc(Cl)sc12` (racemic) [Compound 148], the IC90 under setting [1] was in the range of 50 to 500 nM. In addition, under setting [2], the “Multi-Tox Assay Max Activity (%)” value stood at 97.0%. Take `COCC1(Cn2cc([C@@H]3C[C@]4(C[C@H](C)N3)OC[C@@H](O)c3cc(Cl)sc34)nn2)CC1` [Compound 270]: under setting [1], the IC90 is more than 500 nM. For the same compound, the “Multi-Tox Assay Max Activity (%)” value under setting [2] was found to be 93.0%. Regarding `Cc1ncc(Cn2cc([C@@H]3C[C@]4(C[C@H](C)N3)OCC(F)(F)c3cc(Cl)sc34)nn2)cn1` [Compound 318], the 90% effect concentration (IC90) under setting [1] was less than 50 nM.

As for `Cc1cc([C@@H]2C[C@]3(C[C@H](C)N2)OCCc2cc(Cl)sc23)on1` (racemic) [Compound 66], the concentration for an effect of 90% (IC90) under setting [1] is less than 50 nM. Moreover, the Emax under setting [2] was determined as 99.8%. The matching figures for `CC(=O)Nc1ccc(C2CC3(CC(C)N2)OCCc2cc(Cl)sc23)cn1` (stereo not drawn) [Compound 37]: less than 50 nM and 99.7%. On to `CC1CC2(CC(C)N1)OCCc1cc(Cl)sc12` (mixture of isomers) [Compound 194, 2-chloro-2',6'-dimethyl-spiro[4,5-dihydrothieno[2,3-c]pyran-7,4'-piperidine]], for which the 90% effect concentration (IC90) under setting [1] lay in the range of 50 to 500 nM. Under setting [2], the Emax was determined as 98.7%. For the compound `C[C@H]1C[C@@]2(C[C@@H](c3cc(C4CC4)n[nH]3)N1)OCCc1cc(Cl)sc12` (racemic) [Compound 120], the concentration for an effect of 90% (IC90) under setting [1] lay in the range of 50 to 500 nM. As for `CC(=O)Nc1ccc([C@@H]2C[C@]3(C[C@H](C)N2)OCCc2cc(Cl)sc23)cc1` (racemic) [Compound 50], under setting [1], the IC90 is less than 50 nM. For the same compound, the “Multi-Tox Assay Max Activity (%)” value under setting [2] is 99.7%. `COc1ccc([C@@H]2C[C@]3(C[C@H](C)N2)OCCc2cc(Cl)sc23)cc1C#N` (racemic) [Compound 62]: the IC90 under setting [1] is less than 50 nM. Under setting [2], the Emax amounted to 99.3%.

As to `C[C@H]1C[C@@]2(C[C@@H](c3cnn(CCO)c3)N1)OCCc1cc(Cl)sc12` (racemic) [Compound 56], the IC90 under setting [1] was less than 50 nM. The “Multi-Tox Assay Max Activity (%)” value under setting [2] was determined as 99.8%.

`C[C@H]1CC2(CC(c3cn(C)cn3)N1)OCC(O)c1cc(Cl)sc12` (single isomer, unassigned) [Compound 178]: the concentration for an effect of 90% (IC90) under setting [1] was less than 50 nM. In addition, under setting [2], the Emax was 99.7%. `Cc1ccnn1CCn1cc([C@@H]2C[C@]3(C[C@H](C)N2)OC[C@@H](O)c2cc(Cl)sc23)nn1` [Compound 274]: the IC90 under setting [1] lay in the range of 50 to 500 nM. Further, the “Multi-Tox Assay Max Activity (%)” value under setting [2] was 97.0%.

With `C[C@H]1C[C@@]2(C[C@@H](c3cn(CCC4CCCOC4)nn3)N1)OCC(F)(F)c1cc(Cl)sc12` (stereo partly drawn) [Compound 314], the IC90 under setting [1] is less than 50 nM. With `CC1CC2(CC(C3CC3)N1)OCCc1cc(Cl)sc12` (mixture of isomers) [Compound 217], the IC90 under setting [1] is less than 50 nM. For the same compound, the Emax under setting [2] is 99.2%. Take `Cc1cc([C@@H]2C[C@]3(C[C@H](C)N2)OCCc2cc(Cl)sc23)nc(N(C)C)n1` (racemic) [Compound 138]: the 90% effect concentration (IC90) under setting [1] is 50 to 500 nM. Further, the “Multi-Tox Assay Max Activity (%)” value under setting [2] amounted to 98.0%. On to `C[C@H]1C[C@@]2(C[C@@H](c3cn(Cc4ccc(O)nc4)nn3)N1)OC[C@@H](O)c1cc(Cl)sc12` [Compound 275], for which the IC90 under setting [1] was more than 500 nM. The “Multi-Tox Assay Max Activity (%)” value under setting [2] was 94.0%.

For `C[C@H]1C[C@@]2(C[C@@H](c3ccccc3)N1)OCCc1cc(Cl)sc12` (racemic) [Compound 81], the IC90 under setting [1] was less than 50 nM. Under setting [2], the Emax stood at 99.7%. For the compound `C[C@H]1C[C@@]2(C[C@@H](c3cnc(N)nc3)N1)OCCc1cc(Cl)sc12` (racemic) [Compound 57], the IC90 under setting [1] was less than 50 nM. The “Multi-Tox Assay Max Activity (%)” value under setting [2] worked out at 99.7%.

Consider `Cc1coc([C@@H]2C[C@]3(C[C@H](C)N2)OCCc2cc(Cl)sc23)n1` (racemic) [Compound 155], for which, under setting [1], the IC90 was more than 500 nM. Moreover, the “Multi-Tox Assay Max Activity (%)” value under setting [2] is 95.2%. For `Cc1cc([C@@H]2C[C@]3(C[C@H](C)N2)OCCc2cc(Cl)sc23)ccc1O` (racemic) [Compound 108], the IC90 under setting [1] lay within 50 to 500 nM.

`C[C@H]1C[C@@]2(C[C@@H](c3cn(Cc4ccc5nc(O)[nH]c5c4)nn3)N1)OCC(F)(F)c1cc(Cl)sc12` [Compound 366]: the IC90 under setting [3] is more than 500 nM. Besides, the “Multi-Tox Assay Max Activity (%)” value under setting [4] stood at 95.0%. Under “Multi-Tox Assay, IP50 = IC50 for cell proliferation, APOL1 variant not stated in Table 46”, the 50% inhibitory concentration (IC50) is 50 to 500 nM.

`C[C@H]1C[C@@]2(C[C@@H](c3cccnn3)N1)OCCc1cc(Cl)sc12` (racemic) [Compound 92]: the IC90 under setting [1] is less than 50 nM. Further, the Emax under setting [2] is 100%. Turning to `CC1CC2(CC(c3cccnc3)N1)OCCc1cc(Cl)sc12` (racemic) [Compound 20, 2-chloro-2'-methyl-6'-(3-pyridyl)spiro[4,5-dihydrothieno[2,3-c]pyran-7, 4'-piperidine]], the IC90 under setting [1] is less than 50 nM. In addition, the Emax under setting [2] is 99.4%. As for `C[C@H]1C[C@@]2(C[C@@H](c3cn(C)nn3)N1)OCCc1c2sc(C(F)(F)F)c1CO` [Compound 17, [(2'S,6'S,7S)-2'-methyl-6'-(1-methyltriazol-4-yl)-2-(trifluoromethyl)spiro[4,5-dihydrothieno[2,3-c]pyran-7,4'-piperidine]-3-yl]methanol], the IC90 under setting [1] was less than 50 nM. Under setting [2], the Emax is 100%.

With `CC(=O)Nc1cccc([C@@H]2C[C@]3(C[C@H](C)N2)OCCc2cc(Cl)sc23)c1` (racemic) [Compound 113], the 90% effect concentration (IC90) under setting [1] is 50 to 500 nM. For the same compound, the “Multi-Tox Assay Max Activity (%)” value under setting [2] was 100.0%.

As to `C[C@H]1C[C@@]2(C[C@@H](c3cn(C[C@@H](O)CO)nn3)N1)OCC(F)(F)c1cc(Cl)sc12` [Compound 363], the IC90 under setting [3] was 50 to 500 nM. In the case of `C[C@H]1C[C@@]2(C[C@@H](c3cn(CC4CCOCC4)nn3)N1)OC[C@@H](O)c1cc(Cl)sc12` [Compound 267], the 90% effect concentration (IC90) under setting [1] lay within 50 to 500 nM. `C[C@H]1C[C@@]2(C[C@@H](c3ccon3)N1)OCCc1cc(Cl)sc12` (racemic) [Compound 96]: under setting [1], the IC90 is less than 50 nM. In addition, the Emax under setting [2] turned out to be 99.8%.

Usually IC90 stands for the concentration needed for an effect of 90%. The term IC50 denotes the concentration that gives 50% inhibition. Low readings indicate greater potency, high ones weaker potency.
